This note sets out measurements from patent US20110044938A1 (NYCOMED GMBH, priority 2006, published 2011).

Assay [1] has as its system subclones of RKO colon adenocarcinoma cells (RKOp27 or RKOp21) arrested by Ponasterone A. Description: Alamar Blue cell viability assay, cell cycle specific mode of action: cells arrested by ectopic p27Kip1 induced by Ponasterone A versus proliferating cells. The class given is cell-based. Particulars: Homo sapiens, RKO p27 induced (arrested) cells, 10 μM Ponasterone A, 72 hours, value = class bound given in Table A, read-out: −logIC50 RKO p27 induced (arrested) (converted). The essentials:
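Viability of proliferating versus Ponasterone A (10 μM)-arrested RKOp27/RKOp21 cells after 72 h compound exposure at 37° C, in quadruplicate. Read-out is Alamar Blue fluorescence (544/590 nm) normalised to untreated cells = 100%; values as −log IC50.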
On the technique in general: Alamar Blue is a resazurin reagent that responds to reducing activity.

The subject of assay [2] is RKO (RKOp27) human colon adenocarcinoma cells. Description: Alamar Blue cell viability assay, anti-proliferative/cytotoxic activity on proliferating RKO subclones. The format is cell-based. To be noted: RKOp27, 72 h, RKO p27 uninduced (proliferating) cells, value = class bound given in Table A, read-out: −logIC50 RKO p27 uninduced (proliferating) (converted). The essentials:
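Alamar Blue fluorescence (ex 544, em 590 nm) after 72 h compound exposure at 37 °C, 5% CO2, normalised to untreated controls set at 100%. Cells were seeded at 5000 per well and dosed 24 h later with serial semi-logarithmic dilutions in 10% FCS DMEM, four replicates each. −log IC50 [mol/l] was derived from concentration-effect curves.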

Structures are written as SMILES. Where only a bound is given, the exact number is not on record here.

On to `N#Cc1c(NC(=O)/C=C/c2cccnc2)sc2c1CCC(OC(=O)NC1COC1)C2` (centres unmarked) [Example 148, Oxetan-3-yl-carbamicacid 3-cyano-2-((E)-3-pyridin-3-yl-allanoylamino)-4,5,6,7-tetrahydro-benzo[b]thiophen-6-yl ester], for which the IC50 was at least 100 µM in assay [1] and 0.501 to 2 µM in assay [2].
For `N#Cc1c(NC(=O)/C=C/c2cccnc2)sc2c1CCC(COC(=O)NC1COC1)C2` (centres unmarked) [Example 149, Oxetan-3-yl-carbamic acid 3-cyano-2-((E)-3-pyridin-3-yl-allanoylamino)-4,5,6,7-tetrahydro-benzo[b]thiophen-6-ylmethyl ester], in that order: at least 100 µM and 0.501 to 2 µM.
For `CCOC(=O)OCC1CCc2c(sc(NC(=O)CCc3ccccc3OCC)c2C#N)C1` (centres unmarked) [Example 151, Carbonic acid 3-cyano-2-[3-(2-ethoxy-phenyl)-propanoylamino]-4,5,6,7-tetrahydro-benzo[b]thiophen-6-ylmethyl ester ethyl ester], in that order: at least 100 µM and at most 0.501 µM.
For `CCOC(=O)OC1CCc2c(sc(NC(=O)CCc3ccccc3OCC)c2C#N)C1` (centres unmarked) [Example 152, Carbonic acid 3-cyano-2-[3-(2-ethoxy-phenyl)-propanoylamino]-4,5,6,7-tetrahydro-benzo[b]thiophen-6-yl ester ethyl ester], in that order: at least 100 µM and at most 0.501 µM.
On to `CCNC(=O)OC1CCc2c(sc(NC(=O)CCc3ccccc3OCC)c2C#N)C1` (centres unmarked) [Example 153, Ethyl-carbamic acid 3-cyano-2-[3-(2-ethoxy-phenyl)-propanoylamino]-4,5,6,7-tetrahydro-benzo[b]thiophen-6-yl ester], for which the values for the IC50 in assay [1] and in assay [2] were at least 10 µM and at most 0.501 µM, respectively.
For `CCOc1ccccc1CCC(=O)Nc1sc2c(c1C#N)CCC(OC(=O)OCc1ccccc1)C2` (centres unmarked) [Example 154, Carbonic acid benzyl ester 3-cyano-2-[3-(2-ethoxy-phenyl)-propanoylamino]-4,5,6,7-tetrahydro-benzo[b]thiophen-6-yl ester], in that order: at least 100 µM and 0.501 to 2 µM.
With `CCOc1ccccc1CCC(=O)Nc1sc2c(c1C#N)CCC(OC(=O)NCc1ccccc1)C2` (centres unmarked) [Example 155, Benzyl-carbamic acid 3-cyano-2-[3-(2-ethoxy-phenyl)-propanoylamino]-4,5,6,7-tetrahydro-benzo[b]thiophen-6-yl ester], the results for the IC50 in assay [1] and in assay [2] were at least 100 µM and at most 0.501 µM, respectively.
The matching figures for `CCNC(=O)OCC1CCc2c(sc(NC(=O)CCc3cccnc3)c2C#N)C1` (centres unmarked) [Example 156, Ethyl-carbamic acid 3-cyano-2-(3-pyridin-3-yl-propanoylamino)-4,5,6,7-tetrahydro-benzo[b]thiophen-6-ylmethyl ester]: at least 100 µM and 0.501 to 2 µM.
For `CCNC(=O)OC[C@H]1CCc2c(sc(NC(=O)CCc3cccnc3)c2C#N)C1` [Example 156a, (S)-Ethyl-carbamic acid 3-cyano-2-(3-pyridin-3-yl-propanoylamino)-4,5,6,7-tetrahydro-benzo[b]thiophen-6-ylmethyl ester], in that order: at least 100 µM and 0.501 to 2 µM.
For `N#Cc1c(NC(=O)CCc2cccnc2)sc2c1CCC(COC(=O)NCc1ccccc1)C2` (centres unmarked) [Example 157, Benzyl-carbamic acid 3-cyano-2-(3-pyridin-3-yl-propanoylamino)-4,5,6,7-tetrahydro-benzo[b]thiophen-6-ylmethyl ester], in that order: at least 100 µM and at most 0.501 µM.
As for `CCOC(=O)OC1CCc2c(sc(NC(=O)CCc3cccnc3)c2C#N)C1` (centres unmarked) [Example 158, Carbonic acid 3-cyano-2-(3-pyridin-3-yl-propanoylamino)-4,5,6,7-tetrahydro-benzo[b]thiophen-6-yl ester ethyl ester], the results for the IC50 in assay [1] and in assay [2] were at least 100 µM and 0.501 to 2 µM, respectively.
The matching figures for `CCNC(=O)OCC1CCc2c(sc(NC(=O)CCc3ccccc3OCC)c2C#N)C1` (centres unmarked) [Example 159, Ethyl-carbamic acid 3-cyano-2-[3-(2-ethoxy-phenyl)-propanoylamino]-4,5,6,7-tetrahydro-benzo[b]thiophen-6-ylmethyl ester]: at least 100 µM and at most 0.501 µM.
For `CCOc1ccccc1CCC(=O)Nc1sc2c(c1C#N)CCC(COC(=O)NCc1ccccc1)C2` (centres unmarked) [Example 160, Benzyl-carbamic acid 3-cyano-2-[3-(2-ethoxy-phenyl)-propanoylamino]-4,5,6,7-tetrahydro-benzo[b]thiophen-6-ylmethyl ester], in that order: at least 100 µM and at most 0.501 µM.
For `N#Cc1c(NC(=O)CCc2cccnc2)sc2c1CCC(OC(=O)NC1CC1)C2` (centres unmarked) [Example 161, Cyclopropyl-carbamic acid 3-cyano-2-(3-pyridin-3-yl-propanoylamino)-4,5,6,7-tetrahydro-benzo[b]thiophen-6-yl ester], in that order: at least 50.1 µM and 0.501 to 2 µM.
Consider `CNC(=O)OCC1CCc2c(sc(NC(=O)CCc3cccnc3)c2C#N)C1` (centres unmarked) [Example 162, Methyl-carbamic acid 3-cyano-2-(3-pyridin-3-yl-propanoylamino)-4,5,6,7-tetrahydro-benzo[b]thiophen-6-ylmethyl ester], for which the IC50 is at least 100 µM in assay [1] and 0.501 to 2 µM in assay [2].
`CCOc1ccccc1CCC(=O)Nc1sc2c(c1C#N)CCC(OC(=O)NCCn1ccnc1)C2` (centres unmarked) [Example 163, (2-Imidazol-1-yl-ethyl)-carbamic acid 3-cyano-2-[3-(2-ethoxy-phenyl)-propanoylamino]-4,5,6,7-tetrahydro-benzo[b]thiophen-6-yl ester]: the IC50 in assay [1] is at least 10 µM; in assay [2] it was at most 0.501 µM.
The matching figures for `CCOc1ccccc1CCC(=O)Nc1sc2c(c1C#N)CCC(COC(=O)NCCn1ccnc1)C2` (centres unmarked) [Example 164, (2-Imidazol-1-yl-ethyl)-carbamic acid 3-cyano-2-[3-(2-ethoxy-phenyl)-propanoylamino]-4,5,6,7-tetrahydro-benzo[b]thiophen-6-ylmethyl ester]: at least 10 µM and at most 0.501 µM.
For `CCOc1ccccc1CCC(=O)Nc1sc2c(c1C#N)CCC(OC(=O)NCc1cccnc1)C2` (centres unmarked) [Example 165, Pyridin-3-ylmethyl-carbamic acid 3-cyano-2-[3-(2-ethoxy-phenyl)-propanoylamino]-4,5,6,7-tetrahydro-benzo[b]thiophen-6-yl ester], in that order: at least 100 µM and at most 0.501 µM.
The matching figures for `CCOc1ccccc1CCC(=O)Nc1sc2c(c1C#N)CCC(OC(=O)NCCc1cccnc1)C2` (centres unmarked) [Example 166, (2-Pyridin-3-yl-ethyl)-carbamic acid 3-cyano-2-[3-(2-ethoxy-phenyl)-propanoylamino]-4,5,6,7-tetrahydro-benzo[b]thiophen-6-yl ester]: at least 100 µM and at most 0.501 µM.
Take `CCOc1ccccc1CCC(=O)Nc1sc2c(c1C#N)CCC(OC(=O)NCc1cncn1C)C2` (centres unmarked) [Example 167, (3-Methyl-3H-imidazol-4-ylmethyl)-carbamic acid 3-cyano-2-[3-(2-ethoxy-phenyl)-propanoylamino]-4,5,6,7-tetrahydro-benzo[b]thiophen-6-yl ester]: the IC50 was at least 10 µM in assay [1] and at most 0.501 µM in assay [2].
For `CCOc1ccccc1CCC(=O)Nc1sc2c(c1C#N)CCC(OC(=O)NCc1cn(C)cn1)C2` (centres unmarked) [Example 168, (1-Methyl-1H-imidazol-4-ylmethyl)-carbamic acid 3-cyano-2-[3-(2-ethoxy-phenyl)-propanoylamino]-4,5,6,7-tetrahydro-benzo[b]thiophen-6-yl ester], in that order: at least 10 µM and at most 0.501 µM.
For `CCOc1ccccc1CCC(=O)Nc1sc2c(c1C#N)CCC(OC(=O)NCc1ccnn1C)C2` (centres unmarked) [Example 169, (2-Methyl-2H-pyrazol-3-ylmethyl)-carbamic acid 3-cyano-2-[3-(2-ethoxy-phenyl)-propanoylamino]-4,5,6,7-tetrahydro-benzo[b]thiophen-6-yl ester], in that order: at least 50.1 µM and at most 0.501 µM.
`CCOc1ccccc1CCC(=O)Nc1sc2c(c1C#N)CCC(OC(=O)NCc1cnn(C)c1)C2` (centres unmarked) [Example 170, (1-Methyl-1H-pyrazol-4-ylmethyl)-carbamic acid 3-cyano-2-[3-(2-ethoxy-phenyl)-propanoylamino]-4,5,6,7-tetrahydro-benzo[b]thiophen-6-yl ester]: the results for the IC50 in assay [1] and in assay [2] were at least 100 µM and at most 0.501 µM, respectively.
For `CCOc1ccccc1CCC(=O)Nc1sc2c(c1C#N)CCC(OC(=O)NCc1ccncc1)C2` (centres unmarked) [Example 171, Pyridin-4-ylmethyl-carbamic acid 3-cyano-2-[3-(2-ethoxy-phenyl)-propanoylamino]-4,5,6,7-tetrahydro-benzo[b]thiophen-6-yl ester], in that order: at least 50.1 µM and at most 0.501 µM.
For `CCOc1ccccc1CCC(=O)Nc1sc2c(c1C#N)CCC(OC(=O)NCc1cc(C)on1)C2` (centres unmarked) [Example 172, (5-Methyl-isoxazol-3-ylmethyl)-carbamic acid 3-cyano-2-[3-(2-ethoxy-phenyl)-propanoylamino]-4,5,6,7-tetrahydro-benzo[b]thiophen-6-yl ester], in that order: at least 100 µM and at most 0.501 µM.
